#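 Exposure lasted 48 hours, with cells grown in 96-well plates and compounds tested at five concentrations. Definition used: TGI = concentration required for complete inhibition of growth.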
# Columns and labels:
# Experiment in all cases: NCI tumour cell line growth inhibition, 48 h
# HCT-116 colon = test system: HCT-116 colon
# SF-295 CNS = test system: SF-295 CNS
# HL-60(TB) leukemia = test system: HL-60(TB) leukemia
# SK-MEL-28 melanoma = test system: SK-MEL-28 melanoma
# 786-0 renal = test system: 786-0 renal
# SF-268 CNS = test system: SF-268 CNS
# NCI/ADR-RES ovarian = test system: NCI/ADR-RES ovarian
# SN12C renal = test system: SN12C renal
# NCI-H460 lung = test system: NCI-H460 lung
# HOP-92 NSCLC = test system: HOP-92 NSCLC
# KM12 colon = test system: KM12 colon
# SK-MEL-5 melanoma = test system: SK-MEL-5 melanoma
# MALME-3M melanoma = test system: MALME-3M melanoma
# K-562 leukemia = test system: K-562 leukemia
# BT-549 breast = test system: BT-549 breast
# DU-145 prostate = test system: DU-145 prostate
# UACC-257 melanoma = test system: UACC-257 melanoma
# EKVX NSCLC = test system: EKVX NSCLC
# HCC-2998 colon = test system: HCC-2998 colon
# MDA-MB-435 = test system: MDA-MB-435
# ACHN renal = test system: ACHN renal
# LOX IMVI melanoma = test system: LOX IMVI melanoma
# CCRF-CEM leukemia = test system: CCRF-CEM leukemia
# HT29 colon = test system: HT29 colon
# NCI-H23 lung = test system: NCI-H23 lung
# MCF7 breast = test system: MCF7 breast
# HOP-62 NSCLC = test system: HOP-62 NSCLC
# HS 578T breast = test system: HS 578T breast
# SW-620 colon = test system: SW-620 colon
# COLO 205 colon = test system: COLO 205 colon
# M14 melanoma = test system: M14 melanoma
# MDA-N = test system: MDA-N
# A549 NSCLC = test system: A549 NSCLC
# SNB-75 CNS = test system: SNB-75 CNS
# SNB-19 CNS = test system: SNB-19 CNS
# U251 CNS = test system: U251 CNS
# NCI-H226 lung = test system: NCI-H226 lung
# OVCAR-8 ovarian = test system: OVCAR-8 ovarian
# IGROV1 ovarian = test system: IGROV1 ovarian
# OVCAR-5 ovarian = test system: OVCAR-5 ovarian
# PC-3 prostate = test system: PC-3 prostate
# T-47D breast = test system: T-47D breast
# CAKI-1 renal = test system: CAKI-1 renal
# MDA-MB-231 breast = test system: MDA-MB-231 breast
# OVCAR-3 ovarian = test system: OVCAR-3 ovarian
# RPMI-8226 leukemia = test system: RPMI-8226 leukemia
# TK-10 renal = test system: TK-10 renal
# OVCAR-4 ovarian = test system: OVCAR-4 ovarian
# UO-31 renal = test system: UO-31 renal
# UACC-62 melanoma = test system: UACC-62 melanoma
# SF-539 CNS = test system: SF-539 CNS
# HCT-15 colon = test system: HCT-15 colon
# RXF 393 renal = test system: RXF 393 renal
# SK-MEL-2 melanoma = test system: SK-MEL-2 melanoma
# NCI-H522 lung = test system: NCI-H522 lung
# A498 renal = test system: A498 renal
# SK-OV-3 ovarian = test system: SK-OV-3 ovarian
# MOLT-4 leukemia = test system: MOLT-4 leukemia
smiles,measurement,setting,value
O=[N+]([O-])/C=C/c1c(Cl)cccc1Cl,TGI,HCT-116 colon,14 µM
same,TGI,SF-295 CNS,14.5 µM
same,TGI,HL-60(TB) leukemia,> 100 µM
same,TGI,SK-MEL-28 melanoma,10.9 µM
same,TGI,786-0 renal,1520 nM
same,TGI,SF-268 CNS,28.2 µM
same,TGI,NCI/ADR-RES ovarian,12.5 µM
same,TGI,SN12C renal,5.65 µM
same,TGI,NCI-H460 lung,21 µM
same,TGI,HOP-92 NSCLC,12.2 µM
same,TGI,KM12 colon,5.28 µM
same,TGI,SK-MEL-5 melanoma,8.78 µM
same,TGI,MALME-3M melanoma,9.81 µM
same,TGI,K-562 leukemia,8.61 µM
same,TGI,BT-549 breast,4.96 µM
same,TGI,DU-145 prostate,20.6 µM
same,TGI,UACC-257 melanoma,10.2 µM
same,TGI,EKVX NSCLC,16.9 µM
same,TGI,HCC-2998 colon,8.34 µM
same,TGI,MDA-MB-435,4.62 µM
same,TGI,ACHN renal,7.49 µM
same,TGI,LOX IMVI melanoma,3.16 µM
same,TGI,CCRF-CEM leukemia,> 18.2 µM
same,TGI,HT29 colon,26 µM
same,TGI,NCI-H23 lung,16.8 µM
same,TGI,MCF7 breast,3.29 µM
same,TGI,HOP-62 NSCLC,13 µM
same,TGI,HS 578T breast,> 62.9 µM
same,TGI,SW-620 colon,2180 nM
same,TGI,COLO 205 colon,1760 nM
same,TGI,M14 melanoma,4.87 µM
same,TGI,MDA-N,6.85 µM
same,TGI,A549 NSCLC,22.6 µM
same,TGI,SNB-75 CNS,32.4 µM
same,TGI,SNB-19 CNS,12.1 µM
same,TGI,U251 CNS,9.27 µM
same,TGI,NCI-H226 lung,50.6 µM
same,TGI,OVCAR-8 ovarian,4.13 µM
same,TGI,IGROV1 ovarian,10.3 µM
same,TGI,OVCAR-5 ovarian,16.2 µM
same,TGI,PC-3 prostate,5.58 µM
same,TGI,T-47D breast,9.39 µM
same,TGI,CAKI-1 renal,7.86 µM
same,TGI,MDA-MB-231 breast,4.26 µM
same,TGI,OVCAR-3 ovarian,3.28 µM
same,TGI,RPMI-8226 leukemia,514 nM
same,TGI,TK-10 renal,8.25 µM
same,TGI,OVCAR-4 ovarian,11.4 µM
same,TGI,UO-31 renal,13.3 µM
same,TGI,UACC-62 melanoma,8.14 µM
same,TGI,SF-539 CNS,5.12 µM
same,TGI,HCT-15 colon,5.04 µM
same,TGI,RXF 393 renal,> 21.8 µM
same,TGI,SK-MEL-2 melanoma,14 µM
same,TGI,NCI-H522 lung,5.95 µM
same,TGI,A498 renal,30 µM
same,TGI,SK-OV-3 ovarian,35.5 µM
Cc1nc2cc(F)c(F)cc2[nH]c1=O,TGI,HCT-116 colon,> 100 µM
same,TGI,SF-295 CNS,> 100 µM
same,TGI,HL-60(TB) leukemia,> 100 µM
same,TGI,SK-MEL-28 melanoma,> 100 µM
same,TGI,786-0 renal,> 100000 nM
same,TGI,SF-268 CNS,> 100 µM
same,TGI,NCI/ADR-RES ovarian,> 100 µM
same,TGI,SN12C renal,> 100 µM
same,TGI,NCI-H460 lung,> 100 µM
same,TGI,HOP-92 NSCLC,> 100 µM
same,TGI,KM12 colon,> 100 µM
same,TGI,SK-MEL-5 melanoma,> 100 µM
same,TGI,MALME-3M melanoma,> 100 µM
same,TGI,K-562 leukemia,> 100 µM
same,TGI,BT-549 breast,> 100 µM
same,TGI,DU-145 prostate,> 100 µM
same,TGI,UACC-257 melanoma,> 100 µM
same,TGI,EKVX NSCLC,> 100 µM
same,TGI,HCC-2998 colon,> 100 µM
same,TGI,MDA-MB-435,> 100 µM
same,TGI,ACHN renal,> 100 µM
same,TGI,LOX IMVI melanoma,> 100 µM
same,TGI,CCRF-CEM leukemia,> 100 µM
same,TGI,HT29 colon,> 100 µM
same,TGI,NCI-H23 lung,> 100 µM
same,TGI,MCF7 breast,> 100 µM
same,TGI,HOP-62 NSCLC,> 100 µM
same,TGI,HS 578T breast,> 100 µM
same,TGI,SW-620 colon,> 100000 nM
same,TGI,COLO 205 colon,> 100000 nM
same,TGI,M14 melanoma,> 100 µM
same,TGI,MDA-N,> 100 µM
same,TGI,A549 NSCLC,> 100 µM
same,TGI,SNB-75 CNS,> 100 µM
same,TGI,SNB-19 CNS,> 100 µM
same,TGI,U251 CNS,> 100 µM
same,TGI,NCI-H226 lung,> 100 µM
same,TGI,OVCAR-8 ovarian,> 100 µM
same,TGI,OVCAR-5 ovarian,> 100 µM
same,TGI,PC-3 prostate,> 100 µM
same,TGI,T-47D breast,> 100 µM
same,TGI,CAKI-1 renal,> 100 µM
same,TGI,MDA-MB-231 breast,> 100 µM
same,TGI,OVCAR-3 ovarian,> 100 µM
same,TGI,RPMI-8226 leukemia,> 100000 nM
same,TGI,TK-10 renal,> 100 µM
same,TGI,OVCAR-4 ovarian,> 100 µM
same,TGI,UO-31 renal,> 100 µM
same,TGI,UACC-62 melanoma,> 100 µM
same,TGI,SF-539 CNS,> 100 µM
same,TGI,HCT-15 colon,> 100 µM
same,TGI,RXF 393 renal,> 100 µM
same,TGI,MOLT-4 leukemia,> 100 µM
same,TGI,SK-MEL-2 melanoma,> 100 µM
same,TGI,SK-OV-3 ovarian,> 100 µM

# Reference: PubChem BioAssay (NCI)
